Experimental findings from patent publication US8647845B2, “Method for producing sugar” (Asahi Group Holdings, Ltd., priority 2008, dated 2014) are described below.

The assay has as its target T1, sucrase (Saccharomyces cerevisiae, UniProt P00724).
T1 construct: S. cervisiae (Taiken 396 strain) which is a general yeast having sucrase; endogenous in cells; host or cells: Saccharomyces cerevisiae Taiken 396 strain (live yeast in sugarcane-pressed juice)
T1 sequence (P00724 20-532): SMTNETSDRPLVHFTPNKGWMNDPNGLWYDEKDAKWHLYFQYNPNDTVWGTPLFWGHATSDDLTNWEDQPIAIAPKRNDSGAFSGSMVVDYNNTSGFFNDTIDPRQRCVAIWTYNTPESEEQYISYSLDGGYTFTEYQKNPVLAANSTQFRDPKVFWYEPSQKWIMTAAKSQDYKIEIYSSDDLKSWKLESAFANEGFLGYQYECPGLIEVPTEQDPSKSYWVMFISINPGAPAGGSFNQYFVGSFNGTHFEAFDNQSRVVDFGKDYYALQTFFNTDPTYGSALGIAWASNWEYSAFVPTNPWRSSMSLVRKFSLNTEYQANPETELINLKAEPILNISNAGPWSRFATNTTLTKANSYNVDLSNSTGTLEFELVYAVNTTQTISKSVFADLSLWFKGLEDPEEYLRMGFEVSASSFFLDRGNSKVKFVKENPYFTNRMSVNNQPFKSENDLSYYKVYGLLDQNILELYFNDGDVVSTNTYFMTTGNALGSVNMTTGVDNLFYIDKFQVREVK
The assay can be described thus: Fermentation test on sugarcane-pressed juice using sucrase inhibitor. The class given is cell-based, S. cervisiae (Taiken 396 strain). The following applies: 60 mM inhibitor. The protocol: S. cervisiae ([…] 396 strain) which is a general yeast having sucrase was planted in a sugarcane-pressed juice. Methyl-α-D-glucopyranoside serving as a sucrase inhibitor was added thereto at a concentration 60 mM. A fermentation test was conducted to examine the changes in the concentrations of sucrose, invert sugars, and ethanol over time. The fungal strain used for fermentation had been pre-precultured by shaking in 10 mL of a YM medium at 30° C. for 24 hours, and then further precultured by shaking in 500 mL of a YPD medium at 30° C. for 12 hours. The yeast was collected from the precultured medium by centrifugation. 100 mL of the pressed juice (in the pressed juice, the sucrose concentration was 10.0%, and the invert sugar concentration was 3.0%) and 60 mM of methyl-α-D-glucopyranoside were placed in a 300-mL Erlenmeyer flask with a fermentation lock. The yeast collected from the precultured medium by centrifugation was added into the flask for fermentation. The fermentation was carried out by shaking at 30° C. at 120 rpm.

[1] abbreviates: 6 hours after the fermentation was started.

On to `CO[C@H]1O[C@H](CO)[C@@H](O)[C@H](O)[C@H]1O` [methyl-α-D-glucopyranoside], for which, under setting [1], the “invert sugars converted into ethanol” value was “all the invert sugars were converted into ethanol” and the sucrose remaining result was “approximately half of the sucrose remained”. Further, the “sucrose ratio of the fermented liquid” value (8 hours after the fermentation was started) worked out at 94.0%. Moreover, the sucrose decomposition speed result (sugarcane-pressed juice (sucrose 10.0%, invert sugar 3.0%), 30° C., compared with no inhibitor) is recorded as “made slow”.
